Experimental data published in the supplement of paper PMC10307832.

Assays:
Assay in all cases: relative viability (nuclei count vs DMSO), 5 days (fraction); higher = more cells survive
RO-3306 + OSI-027 = compound: C1=CC2=C(C=CC(=C2)C=C3C(=O)NC(=NCC4=CC=CS4)S3)N=C1 [RO-3306] + COc1cccc2cc(-c3nc([C@H]4CC[C@H](C(=O)O)CC4)n4ncnc(N)c34)[nH]c12 [OSI-027] (partner 0.5 µM)
Outline: (§1)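 A single step with final 0.05% Triton X-100, 1% formaldehyde and 1 ug/ml Hoechst fixed the cells and stained nuclei 5 days after treatment. Lung cancer cell lines in 1536-well plates had been treated by pin tool the day after seeding with one drug alone or a fixed anchor-drug dose plus five library-drug doses (not always all listed) in √10 steps, and nuclei were counted on 4× images. Relative viability is the ratio of nuclei in treated wells to nuclei in vehicle wells, taken as the median of duplicate plates.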

RO-3306 + Dasatinib = compound: C1=CC2=C(C=CC(=C2)C=C3C(=O)NC(=NCC4=CC=CS4)S3)N=C1 [RO-3306] + Cc1nc(Nc2ncc(C(=O)Nc3c(C)cccc3Cl)s2)cc(N2CCN(CCO)CC2)n1 [Dasatinib] (partner 0.075 µM)
Outline: as §1

RO-3306 + Foretinib = compound: C1=CC2=C(C=CC(=C2)C=C3C(=O)NC(=NCC4=CC=CS4)S3)N=C1 [RO-3306] + COc1cc2c(Oc3ccc(NC(=O)C4(C(=O)Nc5ccc(F)cc5)CC4)cc3F)ccnc2cc1OCCCN1CCOCC1 [Foretinib] (partner 0.25 µM)
Outline: as §1

[1] = compound: O=S(=O)(c1ccccc1)N(CC(F)(F)F)c1ccc(C(O)(C(F)(F)F)C(F)(F)F)cc1 + Cc1nc(NC(=O)N2CCC[C@H]2C(N)=O)sc1-c1ccnc(C(C)(C)C(F)(F)F)c1 [Alpelisib] (partner 2 µM)
Outline: as §1

Cell Line | relative viability (RO-3306 + OSI-027; first compound 0.01 µM) | relative viability (RO-3306 + OSI-027; first compound 0.03162 µM) | relative viability (RO-3306 + OSI-027; first compound 0.1 µM) | relative viability (RO-3306 + OSI-027; first compound 0.3162 µM) | relative viability (RO-3306 + OSI-027; first compound 1 µM) | relative viability (RO-3306 + Dasatinib; first compound 0.01 µM) | relative viability (RO-3306 + Dasatinib; first compound 0.03162 µM) | relative viability (RO-3306 + Dasatinib; first compound 0.1 µM) | relative viability (RO-3306 + Dasatinib; first compound 0.3162 µM) | relative viability (RO-3306 + Dasatinib; first compound 1 µM) | relative viability (RO-3306 + Foretinib; first compound 0.01 µM) | relative viability (RO-3306 + Foretinib; first compound 0.03162 µM) | relative viability (RO-3306 + Foretinib; first compound 0.1 µM) | relative viability (RO-3306 + Foretinib; first compound 0.3162 µM) | relative viability (RO-3306 + Foretinib; first compound 1 µM) | relative viability ([1]; first compound 0.8 µM) | relative viability ([1]; first compound 2.53 µM) | relative viability ([1]; first compound 8 µM)
NCI-H23 | 0.531 | 0.462 | 0.575 | 0.519 | 0.403 | 0.679 | 0.595 | 0.932 | 0.75 | 0.657 | 0.972 | 0.728 | 0.833 | 1.08 | 0.978 | 0.905 | 0.818 | 0.618
NCI-H322M | 0.535 | 0.527 | 0.532 | 0.571 | 0.503 | 0.252 | 0.259 | 0.257 | 0.255 | 0.244 | 1.05 | 0.815 | 0.896 | 0.962 | 1.02 | 0.794 | 0.792 | 0.73
NCI-H358 | 0.587 | 0.658 | 0.79 | 0.741 | 0.59 | 0.145 | 0.155 | 0.169 | 0.133 | 0.191 | 0.541 | 0.57 | 0.623 | 0.786 | 0.493 | 0.647 | 0.729 | 0.695
NCI-H522 | 0.68 | 0.695 | 0.622 | 0.711 | 0.715 | 0.895 | 0.854 | 0.82 | 0.823 | 0.846 |  |  |  |  |  |  |  | 
NCI-H1299 |  |  |  |  |  |  |  |  |  |  | 1.17 | 1.1 | 1.15 | 1.14 | 1.17 | 1.09 | 1.08 | 1.03
